Test results from patent US11040976B2, “Substrate selective inhibitors of insulin-degrading enzyme (IDE) and uses thereof” (President and Fellows of Harvard College, priority 2015, dated 2021).

Assays:
[1] = target: T1, Human N-His6-IDE42-1019 (E. coli expressed) (Homo sapiens, UniProt P14735); experiment: Fluorescence anisotropy high-throughput screening assay (displacement of probe FL-6b); type: binding; conditions: final compound concentration 20 μM (6bK control 1 μM); values without asterisk
T1 construct: Human N-His6-IDE42-1019 (E. coli expressed); made in house; host or cells: E. coli (Rosetta 2 (DE3) pLysS, plasmid pTrcHis-A)
T1 sequence (P14735 42-1019): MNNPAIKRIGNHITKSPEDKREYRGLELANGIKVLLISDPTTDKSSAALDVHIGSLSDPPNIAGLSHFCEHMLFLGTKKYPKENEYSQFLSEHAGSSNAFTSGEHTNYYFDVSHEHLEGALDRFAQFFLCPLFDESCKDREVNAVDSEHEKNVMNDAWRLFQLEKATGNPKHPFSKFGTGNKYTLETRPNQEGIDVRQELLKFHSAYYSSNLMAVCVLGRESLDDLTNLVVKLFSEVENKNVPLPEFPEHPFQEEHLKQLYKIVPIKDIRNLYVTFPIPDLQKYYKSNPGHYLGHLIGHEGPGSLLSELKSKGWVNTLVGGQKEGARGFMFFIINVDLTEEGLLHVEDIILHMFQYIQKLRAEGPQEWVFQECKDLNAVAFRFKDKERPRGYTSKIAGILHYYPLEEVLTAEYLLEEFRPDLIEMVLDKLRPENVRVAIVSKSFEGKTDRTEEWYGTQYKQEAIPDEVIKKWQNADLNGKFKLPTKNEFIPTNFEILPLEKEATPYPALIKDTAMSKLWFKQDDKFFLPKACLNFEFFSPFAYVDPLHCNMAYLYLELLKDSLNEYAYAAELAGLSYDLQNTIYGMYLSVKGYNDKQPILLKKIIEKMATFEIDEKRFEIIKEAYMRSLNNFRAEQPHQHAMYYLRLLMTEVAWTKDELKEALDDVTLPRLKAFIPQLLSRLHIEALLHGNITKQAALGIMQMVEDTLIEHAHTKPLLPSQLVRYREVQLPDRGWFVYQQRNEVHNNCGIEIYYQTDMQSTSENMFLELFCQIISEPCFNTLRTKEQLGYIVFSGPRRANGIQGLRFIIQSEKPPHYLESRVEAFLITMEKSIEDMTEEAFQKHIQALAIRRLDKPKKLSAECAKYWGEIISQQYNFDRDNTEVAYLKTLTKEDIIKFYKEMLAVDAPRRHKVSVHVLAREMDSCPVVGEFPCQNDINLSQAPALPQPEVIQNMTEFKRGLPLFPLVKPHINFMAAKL
Outline: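 Compounds at 20 μM final were added to 0.5 μM enzyme with fluorescein-labelled macrocycle probe ([…]) in 50 mM Tris pH 8.0, 1 M NaCl, 25 °C. Anisotropy (ex 492/em 523 nm) was read after 30 min in duplicate. Z-scores were calculated against plate DMSO controls.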

[2] = target: T2, recombinant human IDE42-1019 (Homo sapiens, UniProt P14735); experiment: Protease assay with fluorogenic peptide substrate Mca-[…](Dnp)-OH; type: biochemical; conditions: for IC50: fluorogenic peptide Mca-RPPGFSAFK(Dnp)-OH, apparent IC50 for compounds with submaximal inhibition, read-out: IC50 (μM) Proteolysis
T2 construct: recombinant human IDE42-1019 (R&D Systems); purchased R&D Systems
T2 sequence (P14735 42-1019): T1 sequence (P14735 42-1019)

| SMILES | Average Z-score (Fluorescence anisotropy) [1] | IC50 [2] | Emax ([2]; read-out: Imax (%) Proteolysis (inhibition maximum), fluorogenic peptide Mca-RPPGFSAFK(Dnp)-OH, plateau at high inhibitor concentration) |
| --- | --- | --- | --- |
| Cc1cccc(-c2ccc([C@@H]3[C@@H](CO)N4CCCCN(S(=O)(=O)c5ccccc5C)C[C@@H]34)cc2)c1 [compound 297] | −20.26 | 0.25 µM |  |
| NCCCC[C@@H]1NC(=O)/C=C/C(=O)N[C@H](C(N)=O)CCCCNC(=O)[C@@H](Cc2ccc(C(=O)c3ccccc3)cc2)NC(=O)[C@H](CC2CCCCC2)NC1=O [6bK, reference compound] | −24.52 | 0.05 µM | 100% |
